{"source": "patent US8173693B2", "about": "“Benzenesulfonamide derivatives and pharmaceutical composition thereof” (Purzer Pharmaceutical Co., Ltd., priority 2010, dated 2012)", "key": {"[1]": {"system": "Human hepatoblastoma HepG2 cells", "experiment": "SRB assay", "type": "cell-based", "conditions": "48 hr"}, "[2]": {"system": "Human gastric adenocarcinoma AGS cells", "experiment": "SRB assay", "type": "cell-based", "conditions": "48 hr"}, "[3]": {"system": "WI-38 Normal lung fibroblast", "experiment": "MTT assay", "type": "cell-based", "conditions": "Homo sapiens", "protocol": "(§1) All cell lines were maintained in RPMI 1640 supplied with 10% fetal bovine serum and maintained in a humidified chamber at 37° C. containing 5% CO2. Then, all cell lines were treated with compounds for 72 hr and subsequently incubated with 0.4 mg/mL of MTT at 37° C. for 2 hr. The medium was removed, and DMSO was added to dissolve MTT precipitate. Cell proliferation was determined by measuring the optical density at 540 nm using a Thermomax microplate reader (Molecular Devices, Sunnyvale, Calif.), and the IC50 values of the benzenesulfonamide derivatives of the present invention were calculated."}, "[4]": {"system": "WSI Normal skin fibroblast", "experiment": "MTT assay", "type": "cell-based", "protocol": "as §1"}, "[5]": {"system": "Human breast carcinoma MCF-7 cells", "experiment": "SRB assay", "type": "cell-based", "conditions": "MCF7, 48 hr"}, "[6]": {"system": "HUVECs (human umbilical vein endothelial cells)", "experiment": "In vitro tube formation assay (capillary formation, VEGF-induced)", "type": "cell-based", "protocol": "At day 1, HUVECs (human umbilical vein endothelial cells) cocultured with human fibroblasts were incubated in optimized medium and maintained in a humidified chamber at 37° C. containing 5% CO2. […] The cells were stimulated with VEGF (25 ng/mL) without or with GM119 (0.1, 1 or 10 μM). The media were replaced at days 3, 6, and 8. At day 11, the tube-like structures of the umbilical vein endothelial cells were observed by an anti-human CD31 antibody (Kurabo, Tokyo, Japan), and the area of the tube-like structures was analyzed."}, "[7]": {"system": "Human prostate carcinoma PC-3 cells", "experiment": "SRB assay", "type": "cell-based", "protocol": "(§2) Human Bladder Cancer TSGH cells, Human hepatoblastoma HepG2 cells, Human colorectal adenocarcinoma HT-29 cells, human nasopharyngeal carcinoma KB cells, Human gastric adenocarcinoma AGS cells, Human breast carcinoma MCF-7 cells, lung carcinoma A549 cells, and Human prostate carcinoma PC-3 cells were used in the preliminary cytotoxicity assays of the benzenesulfonamide derivatives of the present invention, and the inhibition activity against the tumor cells was evaluated.\n(§3) All cell lines were maintained in RPMI 1640 supplied with 10% fetal bovine serum into 96-well microtiter plates and maintained in a humidified chamber at 37° C. containing 5% CO2. After 24 hr, cell lines in partial wells were fixed in situ with 10% trichloroacetic acid (TCA) to represent a measurement at the time of drug addition (T0). Then, cell lines in other wells were incubated with the benzenesulfonamide derivatives of the present invention for an additional 48 hr, and fixed in situ with 10% TCA to represent a measurement at the time of stopping reaction (Tx). After rinsing the plates with PBS and air-drying, 0.4% sulforhodamine B solution (weight per volume in 1% acetic acid) was added to each well and the plates were incubated for 10 min at room temperature. Unbound sulforhodamine B was removed with 1% acetic acid and the plates were air-dried. Cells bound with sulforhodamine B was subsequently solubilized with 10 mM Tris base (Trizma; Sigma). Cell proliferation was determined by measuring the optical density at 515 nm using a Thermomax microplate reader (Molecular Devices, Sunnyvale, Calif.). The half-inhibition concention (GI50) of the benzenesulfonamide derivatives of the present invention was obtained from the detected optical density."}, "[8]": {"system": "Human gastric adenocarcinoma AGS cells", "experiment": "SRB assay", "type": "cell-based", "conditions": "48 hr", "protocol": "as §2, §3", "remark": "listed apart in the source"}, "[9]": {"system": "lung carcinoma A549 cells", "experiment": "SRB assay", "type": "cell-based", "conditions": "Homo sapiens, 48 hr", "protocol": "as §2, §3"}, "[10]": {"system": "Human hepatoblastoma HepG2 cells", "experiment": "SRB assay", "type": "cell-based", "conditions": "48 hr", "protocol": "as §2, §3", "remark": "listed apart in the source"}, "[11]": {"system": "Human colorectal adenocarcinoma HT-29 cells", "experiment": "SRB assay", "type": "cell-based", "conditions": "48 hr", "protocol": "as §2, §3"}, "[12]": {"system": "Human breast carcinoma MCF-7 cells", "experiment": "SRB assay", "type": "cell-based", "conditions": "MCF7, 48 hr", "protocol": "as §2, §3", "remark": "listed apart in the source"}, "[13]": {"system": "Human colorectal adenocarcinoma HT-29 cells", "experiment": "SRB assay", "type": "cell-based", "conditions": "48 hr", "remark": "listed apart in the source"}, "4T1-Luc cells": {"system": "4T1-Luc cells", "experiment": "In vivo evaluation, long-time treatment, mice implanted with 4T1-Luc cells", "protocol": "GM119 (25 mg/kg) and Taxol (10 mg/kg) were simultaneously applied to a mouse implanted with 4T1-Luc cells for a long time to observe the effect of GM119 on the 4T1-Luc cells.\nA suspension of 4T1-Luc cells in matrigel was injected into the breast adipocyte to obtain mice implanted with luciferase tumor cells. […] When the size of the tumor cells was achieved to 200-500 mm^3, the mice were divided into […], and the number of the mice in each group is ≧5. Then, 0/0, 0/25, 10/[…], or 10/0 mg/kg of Taxol/GM119 was abdominal-injected into the mice every two days until death of the mice, wherein GM119 and Taxol were dissolved in cremophor, and the volume of injection to each mouse is 50 μl. The weight and the number of the mice were recorded every day to analyze the change on the weight and the survival time of the mice. After the drugs were applied to the mice, the size of the tumor cells in the mice was evaluated with bioluminescence every two days."}, "tumor cells": {"system": "tumor cells", "experiment": "Preliminary cytotoxicity assays (MTT, SRB), tumor cell panel", "type": "cell-based", "conditions": "comparison over Tables 1-4", "protocol": "as §2, §1\nas §3, with “After rinsing the plates with PBS and air-drying, 0.4% sulforhodamine B solution (weight per volume in 1% acetic acid) was added to each well and the plates were incubated for 10 min at room temperature. Unbound sulforhodamine B was removed with 1% acetic acid and the plates were air-dried. Cells bound with sulforhodamine B was subsequently solubilized with 10 mM Tris base (Trizma; Sigma).” left out"}, "[14]": {"system": "murine mammary carcinoma cell line 4T1-Luc cells", "experiment": "4T1-Luc cell survival, sulforhodamine B staining", "type": "cell-based", "protocol": "The murine mammary carcinoma cell line 4T1-Luc cells stably expressing the firefly luciferase gene under the selection of G418 was cultured in RPMI containing 10% fetal calf serum. The cells were maintained at 37° C. with 5% CO2 in air and subcultured twice weekly.\nEach well of 96-well plates was seeded with 2,500 or 5,000 tumor cells, and the tumor cells were incubated in medium with 10% fetal bovine serum or without serum. The tumor cells were treated with 0, 0.01, 0.1, 1, or 10 μM of GM119 for 48 hr. Then, the tumor cells were fixed with 10% of trichloroacetic acid, washed with water, stained with sulforhodamine B. Then, the sample was washed with 1% of acetic acid, and Tris buffer was added into the sample. The absorption of the sample was determined at 515 nm with a Thermomax microplate reader, and repeated for 4 times. The absorption of the cells without drug treatment served as 100% survival, and the survival was calculated and represented by average±standard deviation %."}}, "note": "“Also recorded” adds a separate entry of the source."}
{"compound": "COc1ccc(S(=O)(=O)Nc2cccc3c2[nH]c2c(C)ccc(C)c23)cc1", "note": "[Compound 6c, N-(5,8-Dimethyl-9H-carbazol-1-yl)-4-methoxybenzenesulfonamide]", "values": [{"measurement": "IC50", "setting": "[1]", "value": 1000, "unit": "nM"}, {"measurement": "IC50", "setting": "[2]", "value": 1000, "unit": "nM"}, {"measurement": "IC50", "setting": "[3]", "value": "> 10000", "unit": "nM"}, {"measurement": "IC50", "setting": "[4]", "value": "> 10000", "unit": "nM"}, {"measurement": "IC50", "setting": "[5]", "value": "> 10000", "unit": "nM"}, {"measurement": "inhibition activity compared with suramin", "setting": "[6]; 10 μM GM119 vs 10 μM suramin", "value": "almost equivalent to that of suramin"}, {"measurement": "inhibition of formation of tube-like structures induced by VEGF", "setting": "[6]; VEGF 25 ng/mL, GM119 0.1, 1 or 10 μM, day 11", "value": "can inhibit the formation of the tube-like structures"}, {"measurement": "GI50", "setting": "[7]; 48 hr", "value": 610, "unit": "nM"}, {"measurement": "GI50", "setting": "[7]; Homo sapiens, PC-3, 48 h", "value": 500, "unit": "nM"}, {"measurement": "IC50", "setting": "[7]; Homo sapiens, PC-3, 48 hr", "value": 1100, "unit": "nM"}, {"measurement": "GI50", "setting": "[8]", "value": 600, "unit": "nM"}, {"measurement": "GI50", "setting": "[9]", "value": 280, "unit": "nM"}, {"measurement": "GI50", "setting": "[10]", "value": 70, "unit": "nM"}, {"measurement": "GI50", "setting": "[11]", "value": 320, "unit": "nM"}, {"measurement": "GI50", "setting": "[12]", "value": 630, "unit": "nM"}, {"measurement": "IC50", "setting": "[13]", "value": 9000, "unit": "nM"}, {"measurement": "survival of the mice", "setting": "4T1-Luc cells; long time: Taxol 10 mg/kg and/or GM119 25 mg/kg abdominal-injected every two days until death, FIG. 3", "value": "the survival time of the mice is the longest"}, {"measurement": "growth of the tumor cells (bioluminescence)", "setting": "4T1-Luc cells; long-time treatment", "value": "the growth of the tumor cells can be inhibited"}, {"measurement": "inhibitory activity against the tumor cells (in words)", "setting": "tumor cells", "value": "has the best inhibition activity; also recorded: has the highest inhibitory activity"}, {"measurement": "growth of the 4T1 cells", "setting": "[14]; 0.01 μM, 48 hr, medium with or without serum, FIG. 1", "value": "the growth of the 4T1 cells can be inhibited"}, {"measurement": "inhibition of the 4T1 cells", "setting": "[14]; 10 μM, 48 hr, FIG. 1", "value": "the inhibition of the 4T1 cells is apparent"}, {"measurement": "killing of 4T1 cells (FIG. 1 legend)", "setting": "[14]; in vitro assay", "value": "kills the murine mammary carcinoma 4T1 cell"}]}
